# Columns and labels:
# S. aureus KEM-MRSA7 = test: MIC, Macro-broth dilution method; type: cell-based, Staphylococcus aureus
# From the text: (§1) The in-vitro potency was established by minimum inhibitory concentration (MIC) determinations of the compound PM181104 against bacterial strains, by using the Macro-broth dilution method as per National Committee for Clinical Laboratory Standards (2000) guidelines [Journal of Anti-microbial Chemotherapy, 2002, 50, 125-128 (Cross Reference 8: Methods for Dilution Antimicrobial Susceptibility Tests for Bacteria that Grow Aerobically-Fifth Edition: Approved Standard M7-A5. NCCLS, Wayne, Pa., USA)]. Unless stated otherwise, Mueller-Hinton broth was used as nutrient medium for the assay. Linezolid (manufactured by Glenmark Pharma Ltd; Batch no: K2005028) was used as known standard in all in-vitro experiments. For preparation of the stock solution the compound PM181104 was dissolved in chloroform (5% of the total required volume) and diluted using methanol (95% of the total required volume).
# S. aureus KEM-MRSA22 = test: MIC, Macro-broth dilution method; type: cell-based, Staphylococcus aureus
# From the text: as §1
# S. aureus (20666) = test: MIC, Macro-broth dilution method; type: cell-based, Staphylococcus aureus
# From the text: as §1
# S. aureus KEM-MRSA24 = test: MIC, Macro-broth dilution method; type: cell-based, Staphylococcus aureus
# From the text: as §1
# S. aureus KEM-MRSA1 = test: MIC, Macro-broth dilution method; type: cell-based, Staphylococcus aureus
# From the text: as §1
# S. aureus SG511 = test: MIC, Macro-broth dilution method; type: cell-based, Staphylococcus aureus
# From the text: as §1
# S. aureus ATCC29213 = test: MIC, Macro-broth dilution method; type: cell-based, Staphylococcus aureus
# From the text: as §1
# S. aureus KEM-MRSA20 = test: MIC, Macro-broth dilution method; type: cell-based, Staphylococcus aureus
# From the text: as §1
# S. aureus Rehaja-MRSA1 = test: MIC, Macro-broth dilution method; type: cell-based, Staphylococcus aureus
# From the text: as §1
# S. aureus KEM-MRSA2 = test: MIC, Macro-broth dilution method; type: cell-based, Staphylococcus aureus
# From the text: as §1
# S. aureus (E710) = test: MIC, Macro-broth dilution method; type: cell-based, Staphylococcus aureus; details: S. aureus MRSA E710
# From the text: as §1
# S. aureus KEM-MRSA23 = test: MIC, Macro-broth dilution method; type: cell-based, Staphylococcus aureus
# From the text: as §1
# S. aureus KEM-MRSA21 = test: MIC, Macro-broth dilution method; type: cell-based, Staphylococcus aureus
# From the text: as §1
# S. aureus KEM-MRSA19 = test: MIC, Macro-broth dilution method; type: cell-based, Staphylococcus aureus
# From the text: as §1
# S. aureus KEM-MRSA25 = test: MIC, Macro-broth dilution method; type: cell-based, Staphylococcus aureus
# From the text: as §1
# S. aureus Lilavati-MRSA3 = test: MIC, Macro-broth dilution method; type: cell-based, Staphylococcus aureus
# From the text: as §1
# Salmonella typhi Para A = test: MIC, Macro-broth dilution method; type: cell-based
# From the text: as §1
# [1] = test system: Streptococcus equinus 02 D5 Gr1; test: MIC, Macro-broth dilution method; type: cell-based
# From the text: as §1
# Enterococci KEM-VRE29 = test: MIC, Macro-broth dilution method; type: cell-based
# From the text: as §1
# Enterococci KEM-VRE26 = test: MIC, Macro-broth dilution method; type: cell-based
# From the text: as §1
# Pse. aeruginosa (M-35) = test: MIC, Macro-broth dilution method; type: cell-based
# From the text: as §1
# Klebsiella pneumoniae = test: MIC, Macro-broth dilution method; type: cell-based
# From the text: as §1
# Enterococci KEM-VRE28 = test: MIC, Macro-broth dilution method; type: cell-based
# From the text: as §1
# E. faecalis ATCC BAA 472 = test: MIC, Macro-broth dilution method; type: cell-based
# From the text: as §1
# E. faecalis 4073H = test: MIC, Macro-broth dilution method; type: cell-based
# From the text: as §1
# E. coli SS = test: MIC, Macro-broth dilution method; type: cell-based
# From the text: as §1
# E. faecalis (uD.8b) = test: MIC, Macro-broth dilution method; type: cell-based
# From the text: as §1
# [2] = test system: Streptococcus durans 4939 (1) H; test: MIC, Macro-broth dilution method; type: cell-based
# From the text: as §1
# Streptococcus hirae 55 = test: MIC, Macro-broth dilution method; type: cell-based
# From the text: as §1
# Enterococci KEM-VRE27 = test: MIC, Macro-broth dilution method; type: cell-based
# From the text: as §1
# [3] = test system: Citrobacter diversus 2046 E; test: MIC, Macro-broth dilution method; type: cell-based
# From the text: as §1
# Streptococcus durans = test: MIC, Macro-broth dilution method; type: cell-based
# From the text: as §1
# E. faecalis (FH-1) = test: MIC, Macro-broth dilution method; type: cell-based
# From the text: as §1
# B. cereus = test: MIC, Macro-broth dilution method; type: cell-based, Bacillus cereus
# From the text: as §1
# E. faecalis, ATCC 51299 = type: cell-based
# From the text: as §1
# [4] = test system: Staphylococcus aureus subsp. aureus ATCC 33591; type: cell-based; details: S. aureus MRSA ATCC 33591
# From the text: as §1
# E. faecalis ATCC 51575 = type: cell-based
# From the text: as §1
structure (smiles),measurement,setting,value
C=C(NC(=O)C(=C)NC(=O)C1CCCN1C(=O)c1nc(-c2ccc(-c3nc(C(=O)NC(=C)C(=O)NC(C)C(N)=O)cs3)c(-c3csc(C4Cc5nc(cs5)C(=O)NC(Cc5ccccc5)C5=NC(CS5)C(=O)NC(Cc5ccc(O)cc5)C(=O)N5CCCC5c5nc(cs5)C(=O)N4)n3)n2)oc1C)C(N)=O (stereo not shown) [PM181104],MIC,S. aureus KEM-MRSA7,0.01563 µg/mL
same,MIC,S. aureus KEM-MRSA22,0.00781 µg/mL
same,MIC,S. aureus (20666),0.01563 µg/mL
same,MIC,S. aureus KEM-MRSA24,0.00781 µg/mL
same,MIC,S. aureus KEM-MRSA1,0.03125 µg/mL
same,MIC,S. aureus SG511,0.0625 µg/mL
same,MIC,S. aureus ATCC29213,0.03125 µg/mL
same,MIC,S. aureus KEM-MRSA20,0.01563 µg/mL
same,MIC,S. aureus Rehaja-MRSA1,0.03125 µg/mL
same,MIC,S. aureus KEM-MRSA2,0.03125 µg/mL
same,MIC,S. aureus (E710),0.03125 µg/mL
same,MIC,S. aureus KEM-MRSA23,0.01563 µg/mL
same,MIC,S. aureus KEM-MRSA21,0.01563 µg/mL
same,MIC,S. aureus KEM-MRSA19,0.00781 µg/mL
same,MIC,S. aureus KEM-MRSA25,0.01563 µg/mL
same,MIC,S. aureus Lilavati-MRSA3,0.01563 µg/mL
same,MIC,Salmonella typhi Para A,>1 µg/mL
same,MIC,[1],0.01563 µg/mL
same,MIC,Enterococci KEM-VRE29,0.00391 µg/mL
same,MIC,Enterococci KEM-VRE26,0.00781 µg/mL
same,MIC,Pse. aeruginosa (M-35),>1 µg/mL
same,MIC,Klebsiella pneumoniae,>1 µg/mL
same,MIC,Enterococci KEM-VRE28,0.00781 µg/mL
same,MIC,E. faecalis ATCC BAA 472,0.01563 µg/mL
same,MIC,E. faecalis 4073H,0.00781 µg/mL
same,MIC,E. coli SS,>1 µg/mL
same,MIC,E. faecalis (uD.8b),0.00391 µg/mL
same,MIC,[2],0.00781 µg/mL
same,MIC,Streptococcus hirae 55,0.00391 µg/mL
same,MIC,Enterococci KEM-VRE27,0.00391 µg/mL
same,MIC,[3],>1 µg/mL
same,MIC,Streptococcus durans,0.00781 µg/mL
same,MIC,E. faecalis (FH-1),0.00391 µg/mL
same,MIC,B. cereus,0.00391 µg/mL
same,MIC,"E. faecalis, ATCC 51299",0.01563 µg/mL
same,MIC,[4],0.03125 µg/mL
same,MIC,E. faecalis ATCC 51575,0.03125 µg/mL
